The nature of series [1]: Fraction unbound in human plasma at 37 degC by LC-UV/MS method based equilibrium dialysis method. For orientation: In equilibrium dialysis free small molecules cross a membrane that holds back macromolecules.
Series [2] is described as follows: Solubility in 0.1 M phosphate buffer at pH 7.4 at 25 degC incubated for 24 hrs.
Series [3] in a line: Apparent permeability from apical to basolateral side in human Caco2 cells at pH 7.4. The series is classed as ADME, cell-based. The note with it: Caco-2, pH 7.4. For orientation: Passage across Caco-2 layers is used to estimate intestinal permeability.
Series [4] can be described thus: Lipophilicity, log D of the compound at pH 7.4 by chromatographic method. The note with it: buffer.
Series [5] deals with T1, Diacylglycerol O-acyltransferase 1 (Homo sapiens, UniProt O75907).
T1 sequence (O75907 whole entry): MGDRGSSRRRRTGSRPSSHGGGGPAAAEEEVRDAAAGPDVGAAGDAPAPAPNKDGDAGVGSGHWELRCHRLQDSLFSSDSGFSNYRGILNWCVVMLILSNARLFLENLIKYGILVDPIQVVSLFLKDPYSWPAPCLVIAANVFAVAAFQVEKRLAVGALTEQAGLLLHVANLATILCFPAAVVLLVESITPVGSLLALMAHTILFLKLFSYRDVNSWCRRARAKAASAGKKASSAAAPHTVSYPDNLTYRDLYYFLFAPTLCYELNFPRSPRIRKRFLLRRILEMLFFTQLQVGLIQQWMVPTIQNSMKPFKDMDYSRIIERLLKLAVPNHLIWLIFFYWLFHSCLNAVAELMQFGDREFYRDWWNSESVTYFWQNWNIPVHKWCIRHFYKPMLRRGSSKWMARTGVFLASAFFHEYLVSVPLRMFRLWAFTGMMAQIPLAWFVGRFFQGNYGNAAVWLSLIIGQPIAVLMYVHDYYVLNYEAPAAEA
Description: Inhibition of human recombinant DGAT1 expressed in Sf9 cells by liquid scintillography

A short description of series [6]: Oral bioavailability in rat. The note with it: in vivo.
Series [7] in a line: Stability in pH 7.8 buffer assessed as compound degradation incubated for 45 mins. The series is classed as physicochemical. The note with it: pH 7.8, 0.75 h.
Series [8] is described as follows: Stability in pH 7.8 buffer assessed as acyl migration incubated for 45 mins. The series is classed as physicochemical. The note with it: pH 7.8, 0.75 h.
Series [9] has as its target T2, Sterol O-acyltransferase 1 (Homo sapiens, UniProt P35610).
T2 sequence (P35610 whole entry): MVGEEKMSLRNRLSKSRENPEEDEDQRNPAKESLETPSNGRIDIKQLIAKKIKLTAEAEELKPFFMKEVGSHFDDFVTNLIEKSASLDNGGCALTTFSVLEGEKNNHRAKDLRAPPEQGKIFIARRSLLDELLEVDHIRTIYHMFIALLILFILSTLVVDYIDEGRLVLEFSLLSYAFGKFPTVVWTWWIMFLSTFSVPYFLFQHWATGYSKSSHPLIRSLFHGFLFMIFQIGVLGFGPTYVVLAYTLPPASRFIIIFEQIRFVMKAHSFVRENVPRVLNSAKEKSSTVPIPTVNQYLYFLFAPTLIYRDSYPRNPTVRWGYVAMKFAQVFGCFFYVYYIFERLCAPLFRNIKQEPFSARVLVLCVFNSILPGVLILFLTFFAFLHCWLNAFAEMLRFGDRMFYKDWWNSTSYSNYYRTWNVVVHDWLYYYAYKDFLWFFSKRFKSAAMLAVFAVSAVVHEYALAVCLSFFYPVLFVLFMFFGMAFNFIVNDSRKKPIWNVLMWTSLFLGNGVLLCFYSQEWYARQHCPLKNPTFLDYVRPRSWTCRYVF
Description: Inhibition of human ACAT1 by liquid scintillography

pIC50: −log10 of the molar value. ≈ marks a conversion by molar mass, not a printed value. Where only a bound is given, the exact number is not on record here.

As for `Cc1nc(C)c(-c2ccc([C@H]3CC[C@H](CC(=O)NC(C)(C)C(=O)O)CC3)cc2)nc1C(N)=O`, the fraction unbound in [1] was 0.078. Besides, the solubility at 24 h in [2] was determined as 86 µM (≈ 38.9 µg/mL). The apical-to-basolateral permeability (Papp A→B) in series [3] turned out to be 0.71 ×10⁻⁶ cm/s. The compound further registered a chromatographic logD in series [4] of 0.7. The pIC50 in series [5] is 6.96. The compound also displayed a bioavailability in series [6] of 19%.

In the case of `Cc1nc(C)c(-c2ccc([C@H]3CC[C@H](CC(=O)O[C@@H]4O[C@H](C(=O)O)[C@@H](O)[C@H](O)[C@H]4O)CC3)cc2)nc1C(N)=O`, the Stability result in series [7] and in series [8] was “Stable” each time.

Turning to `NC(=O)c1cncc(-c2ccc([C@H]3CC[C@H](CC(=O)O)CC3)cc2)n1`, in [1], the fraction unbound was determined as 0.035. The Papp A→B in [3] was determined as 29 ×10⁻⁶ cm/s. The compound further showed a chromatographic logD in [4] below 0.1. Moreover, the negative-log IC50 (pIC50) was 5.72 in series [5] and below 4.00 in series [9]. The compound further showed a bioavailability in series [6] of 62%.

Broadly, the fraction unbound is free concentration divided by total concentration. Low values mean little free substance, high ones much free substance. The solubility is how much of the substance goes into solution per volume. The low end stands for little dissolved substance, the high end for much dissolved substance. A word on the Papp A→B: it is the apparent permeability from the apical to the basolateral side of a cell layer. In general, chromatographic logD refers to a lipophilicity value derived from retention on a column. A high value points to a more lipophilic compound. Usually pIC50 stands for the negative decadic logarithm of the IC50, by convention in mol/L. As a reminder, the bioavailability is dose-corrected exposure relative to a reference, in per cent. A low value points to poor availability.

The values above are taken from ChEMBL document CHEMBL2176918, “Design and optimization of pyrazinecarboxamide-based inhibitors of diacylglycerol acyltransferase 1 (DGAT1) leading to a clinical candidate dimethylpyrazinecarboxamide phenylcyclohexylacetic acid (AZD7687)” (J Med Chem, 2012).
